Reference: patent US20220002723A1, “METHODS FOR THE TREATMENT OF SMALL ROUND CELL TUMORS” (Board of Regents, The University of Texas System, priority 2018, published 2022)

Columns and labels:
JN-DSRCT cell line = conditions: JN-DSRCT cells; at high levels of DHT
[1] = tested on: LNCaP prostate cancer cell line; conditions: LNCaP cells; at high levels of DHT
[2] = tested on: TC-71 Ewing sarcoma cells; conditions: TC-71 ES cells, lack AR expression

Compound	proliferation on stimulation with AR agonist (JN-DSRCT cell line)	proliferation on stimulation with AR agonist [1]	proliferation on stimulation with AR agonist [2]
C[C@]12CC[C@H]3[C@@H](CCC4=CC(=O)CC[C@@]43C)[C@@H]1CC[C@@H]2O [testosterone]	increased proliferation	increased proliferation	no effect
C[C@]12CCC(=O)C[C@@H]1CC[C@@H]1[C@@H]2CC[C@]2(C)[C@@H](O)CC[C@@H]12 [DHT, 5a-dihydrotestosterone]	increased proliferation	increased proliferation	no effect and not
